Measurements published in the supplement of paper PMC10307832.

Columns and labels:
Experiment in all cases: relative viability (nuclei count vs DMSO), 5 days (fraction); higher = more cells survive
JQ1 = compound: Cc1sc2c(c1C)C(c1ccc(Cl)cc1)=N[C@@H](CC(=O)OC(C)(C)C)c1nnc(C)n1-2 [JQ1]
In short: (§1)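 Viability here means nuclei in treated wells divided by nuclei in vehicle wells, reported as the median across plates. Only plates with control CV below 25% and at least one doubling passed. Lung cancer cell lines in 1536-well plates were exposed to five √10-spaced library-drug doses for 5 days and counted from 4× Hoechst images in MetaXpress.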

Docetaxel = compound: CC(=O)O[C@@]12CO[C@@H]1C[C@H](O)[C@@]1(C)C(=O)[C@H](O)C3=C(C)[C@@H](OC(=O)[C@H](O)[C@@H](NC(=O)OC(C)(C)C)c4ccccc4)C[C@@](O)([C@@H](OC(=O)c4ccccc4)[C@H]21)C3(C)C [Docetaxel]
In short: as §1

Cytarabine = compound: Nc1ccn([C@@H]2O[C@H](CO)[C@@H](O)[C@@H]2O)c(=O)n1 [Cytarabine]
In short: as §1

CPI-613 = compound: O=C(O)CCCCC(CCSCc1ccccc1)SCc1ccccc1 [CPI-613]
In short: as §1

[1] = compound: Cc1cnc(-c2cnc(NCCNc3ccc(C#N)cn3)nc2-c2ccc(Cl)cc2Cl)[nH]1
In short: as §1

Pimozide = compound: O=c1[nH]c2ccccc2n1C1CCN(CCCC(c2ccc(F)cc2)c2ccc(F)cc2)CC1 [Pimozide]
In short: as §1

Tivozanib = compound: COc1cc2nccc(Oc3ccc(NC(=O)Nc4cc(C)on4)c(Cl)c3)c2cc1OC [Tivozanib]
In short: as §1

| Cell Line | relative viability (JQ1; 0.04 µM) | relative viability (JQ1; 0.1265 µM) | relative viability (JQ1; 0.4 µM) | relative viability (JQ1; 1.265 µM) | relative viability (JQ1; 4 µM) | relative viability (Docetaxel; 0.0002 µM) | relative viability (Docetaxel; 0.000632 µM) | relative viability (Docetaxel; 0.002 µM) | relative viability (Docetaxel; 0.006325 µM) | relative viability (Docetaxel; 0.02 µM) | relative viability (Cytarabine; 0.005 µM) | relative viability (Cytarabine; 0.01581 µM) | relative viability (Cytarabine; 0.05 µM) | relative viability (Cytarabine; 0.1581 µM) | relative viability (Cytarabine; 0.5 µM) | relative viability (CPI-613; 5 µM) | relative viability (CPI-613; 15.81 µM) | relative viability (CPI-613; 50 µM) | relative viability (CPI-613; 158.11 µM) | relative viability (CPI-613; 500 µM) | relative viability ([1]; 0.08 µM) | relative viability ([1]; 0.253 µM) | relative viability ([1]; 0.8 µM) | relative viability ([1]; 2.53 µM) | relative viability (Pimozide; 0.08 µM) | relative viability (Pimozide; 0.253 µM) | relative viability (Pimozide; 0.8 µM) | relative viability (Pimozide; 2.53 µM) | relative viability (Pimozide; 8 µM) | relative viability (Tivozanib; 0.005 µM) | relative viability (Tivozanib; 0.01581 µM) | relative viability (Tivozanib; 0.05 µM) | relative viability (Tivozanib; 0.1581 µM) | relative viability (Tivozanib; 0.5 µM) |
| --- | --- | --- | --- | --- | --- | --- | --- | --- | --- | --- | --- | --- | --- | --- | --- | --- | --- | --- | --- | --- | --- | --- | --- | --- | --- | --- | --- | --- | --- | --- | --- | --- | --- | --- |
| NCI-H1563 | 0.898 | 0.785 | 0.778 | 0.648 | 0.661 | 0.881 | 0.974 | 1.08 | 0.744 | 0.593 | 0.936 | 0.974 | 0.971 | 0.835 | 0.771 | 1.05 | 0.957 | 0.996 | 0.531 | 0.307 | 1.03 | 0.999 | 0.934 | 1.09 | 0.952 | 1.03 | 0.93 | 0.869 | 0.867 | 0.958 | 1.05 | 0.975 | 0.95 | 1 |
| NCI-H1623 | 0.961 | 0.82 | 0.908 | 0.557 | 0.54 | 0.889 | 0.957 | 0.601 | 0.424 | 0.264 | 0.828 | 0.592 | 0.41 | 0.25 | 0.216 | 1.07 | 0.99 | 1.13 | 0.743 | 0.867 | 1.06 | 0.957 | 0.921 | 0.947 | 0.675 | 0.916 | 0.902 | 0.939 | 0.932 | 1.05 | 0.986 | 1.03 | 0.714 | 0.986 |
| NCI-H1648 | 0.89 | 0.753 | 0.434 | 0.294 | 0.184 | 0.861 | 0.925 | 0.494 | 0.269 | 0.179 | 0.69 | 0.734 | 0.813 | 0.443 | 0.611 | 0.818 | 0.768 | 1.11 | 0.393 | 0.577 | 1.11 | 0.801 | 0.951 | 0.76 | 1.01 | 0.641 | 0.822 | 0.8 | 0.972 | 0.838 | 0.918 | 1 | 0.886 | 0.716 |
| NCI-H1650 | 0.808 | 0.68 | 0.578 | 0.217 | 0.21 | 0.705 | 0.37 | 0.301 | 0.205 | 0.146 | 0.793 | 0.633 | 0.514 | 0.224 | 0.225 | 0.877 | 0.776 | 0.942 | 0.137 | 0.0508 | 1 | 0.812 | 0.904 | 0.761 | 0.719 | 0.893 | 0.883 | 0.887 | 0.809 | 0.786 | 0.964 | 0.941 | 0.946 | 0.779 |
| NCI-H1651 | 0.908 | 0.838 | 0.708 | 0.606 | 0.546 | 0.858 | 0.979 | 0.671 | 0.198 | 0.14 | 1.07 | 0.972 | 0.986 | 0.664 | 0.476 | 0.995 | 0.947 | 0.93 | 0.769 | 0.527 | 0.975 | 0.924 | 0.982 | 1.02 | 0.977 | 1 | 0.964 | 0.913 | 0.973 | 0.941 | 0.951 | 1.05 | 0.882 | 0.98 |
| NCI-H1666 | 0.94 | 0.965 | 0.848 | 0.711 | 0.64 | 0.86 | 0.876 | 0.616 | 0.6 | 0.421 | 1 | 0.849 | 0.803 | 0.56 | 0.573 | 0.964 | 0.945 | 0.837 | 0.696 | 0.323 | 0.983 | 0.929 | 1.06 | 0.998 | 0.953 | 0.983 | 0.934 | 0.909 | 0.909 | 0.965 | 0.965 | 1.02 | 0.99 | 1.02 |
| NCI-H1703 | 0.865 | 0.675 | 0.639 | 0.431 | 0.405 | 0.891 | 0.869 | 0.274 | 0.163 | 0.127 | 0.729 | 0.393 | 0.288 | 0.16 | 0.153 | 1.04 | 0.836 | 0.749 | 0.585 | 0.406 | 1.14 | 0.901 | 1.01 | 1.28 | 0.899 | 0.916 | 0.913 | 0.95 | 0.892 | 0.36 | 0.271 | 0.311 | 0.211 | 0.215 |
| NCI-H1734 | 0.934 | 0.904 | 0.999 | 0.664 | 0.578 | 0.857 | 0.602 | 0.359 | 0.332 | 0.235 | 0.578 | 0.342 | 0.256 | 0.156 | 0.136 | 0.861 | 0.841 | 0.884 | 0.48 | 0.111 | 1.08 | 0.891 | 0.974 | 0.85 | 0.981 | 0.901 | 0.81 | 0.915 | 0.974 | 0.963 | 1.03 | 0.983 | 0.721 | 0.885 |
| NCI-H1755 | 0.984 | 0.819 | 1.04 | 0.966 | 0.836 | 0.984 | 0.941 | 0.724 | 0.459 | 0.411 | 1.04 | 0.97 | 0.864 | 0.548 | 0.404 | 0.937 | 0.958 | 0.942 | 0.973 | 0.49 | 1.04 | 0.831 | 1.03 | 1.08 | 0.916 | 0.967 | 0.946 | 0.929 | 0.892 | 0.991 | 0.961 | 1.01 | 1.02 | 0.917 |
